Reference: ChEMBL document CHEMBL1124074, “Bile acids with a cyclopropyl-containing side chain. 3. Separation, identification, and properties of all four stereoisomers of 3 alpha,7 beta-dihydroxy-22,23-methylene-5 beta-cholan-24-oic acid” (J Med Chem, 1988)

Tests used:
[1] = pKa value was evaluated; assay type: physicochemical
[2] = Critical micellar concentration was measured in water by the dye solubilization method; assay type: ADME; details: buffer

| Compound | pKa [1] | CMC [2] |
| --- | --- | --- |
| C[C@H]([C@@H]1C[C@@H]1C(=O)O)[C@H]1CC[C@H]2[C@@H]3[C@@H](O)CC4C[C@H](O)CC[C@]4(C)[C@H]3CC[C@]12C (some centres undefined) | 5.02 | 14 mM |
| C[C@H]([C@H]1C[C@H]1C(=O)O)[C@H]1CC[C@H]2[C@@H]3[C@@H](O)CC4C[C@H](O)CC[C@]4(C)[C@H]3CC[C@]12C (some centres undefined) | 5.04 | 10 mM |
| CC(C1CC[C@H]2[C@@H]3[C@@H](O)CC4C[C@H](O)CCC4(C)[C@H]3CCC12C)[C@@H]1C[C@@H]1C(=O)O (some centres undefined) | 5.04 | 25 mM |
| CC(C1CC[C@H]2[C@@H]3[C@@H](O)CC4C[C@H](O)CCC4(C)[C@H]3CCC12C)[C@H]1C[C@H]1C(=O)O (some centres undefined) | 5.05 | 20 mM |
| C[C@H](CCC(=O)O)[C@H]1CC[C@H]2[C@@H]3[C@@H](O)C[C@@H]4C[C@H](O)CC[C@]4(C)[C@H]3CC[C@]12C [URSODIOL] |  | 19 mM |
